Consider two molecules from patent publication US6200994A, “1,4-Disubstituted cyclohexane derivatives for the treatment of depression” (American Home Products Corp, priority 1999, dated 2001).

Molecules are shown by their SMILES.

In one assay the target is T1, serotonin transporter (Rattus norvegicus, UniProt P31652).
T1 construct: frontal cortical membranes prepared from male Sprague-Dawley rats; from tissue; host or cells: frontal cortex membranes of male Sprague-Dawley rats
As to the kind of experiment: 3H-paroxetine binding, affinity for the serotonin transporter (ST) in frontal cortical membranes. The conditions noted are these: 1 h, @ 100 nM. More on the design: species or system male Sprague-Dawley rats. The method, then:
A protocol similar to that used by Cheetham et al., Neuropharmacol., 32:737 (1993) was used to determine the affinity of compounds for the serotonin transporter. Briefly, frontal cortical membranes prepared from male Sprague-Dawley rats were incubated with ^3 H-paroxetine (0.1 nM) for 60 min at 25° C. All tubes also contained either vehicle, test compound (one to eight concentrations), or a saturating concentration of fluoxetine (10 μM) to define […]. All reactions were terminated by the addition of ice cold Tris buffer followed by rapid filtration using a Tom Tech filtration device to separate bound from free ^3 H-paroxetine. Bound radioactivity was quantitated using a Wallac 1205 Beta Plate® counter. Nonlinear regression analysis was used to determine IC50 values which were converted to Ki values using the method set forth in Cheng and Prusoff, Biochem. Pharmacol., 22:3099 (1973) (Ki=IC50/((Radioligand conc.)/(1+KD)).

Another assay deals with T2, human 5-HT1A receptor (Homo sapiens, UniProt P08908).
T2 construct: expressed in transfected cells
T2 sequence (P08908 1-422): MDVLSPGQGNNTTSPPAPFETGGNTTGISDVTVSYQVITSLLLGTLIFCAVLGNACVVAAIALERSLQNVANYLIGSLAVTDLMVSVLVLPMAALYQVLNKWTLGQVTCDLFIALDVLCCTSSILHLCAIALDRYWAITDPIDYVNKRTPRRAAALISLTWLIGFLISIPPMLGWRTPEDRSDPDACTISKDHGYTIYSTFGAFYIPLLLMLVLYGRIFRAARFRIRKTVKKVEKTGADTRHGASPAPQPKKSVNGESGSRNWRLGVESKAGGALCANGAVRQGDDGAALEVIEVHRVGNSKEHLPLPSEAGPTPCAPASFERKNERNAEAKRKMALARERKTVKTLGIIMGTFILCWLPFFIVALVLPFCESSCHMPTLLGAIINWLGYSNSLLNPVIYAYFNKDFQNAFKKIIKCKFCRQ
Description: [3H]8-OH-DPAT binding to human 5-HT1A receptor in CHO cell membranes. The method, then:
The PCR cloning of the human 5-HT1A receptor subtype from a human genomic library has been described previously by Chanda et al., Mol. Pharmacol., 43:516 (1993). A stable Chinese hamster ovary cell line expressing the human 5-HT1A receptor subtype (5-HT1A.CHO cells) was employed throughout this study. Cells were maintained in DMEM supplemented with 10% fetal calf serum, non-essential amino acids and penicillin/ streptomycin.
Cells were grown to 95-100% confluency as a monolayer before membranes were harvested for binding studies. Cells were gently scraped from the culture plates, transferred to centrifuge tubes, and washed twice by centrifugation (2000 rpm for 10 min., 4° C.) in buffer (50 mM Tris; pH 7.5). The resulting pellets were aliquoted and maintained at -80.C. On the day of assay, the cells were thawed on ice, and resuspended in buffer. Studies were conducted using [^3 H]8-OH-DPAT as the radioligand. The binding assay was performed in 96 well microtiter plates in a final total volume of 250 μL of buffer. Comparison experiments were performed by using 7 concentrations of unlabelled drug and a final ligand concentration of 1.5 nM. Non-specific binding was determined in the presence of 10 μM 5HT. Saturation analysis was conducted by using [^3 H]8-OH-DPAT at concentrations ranging from 0.3-30 nM. […]

T1 sequence (P31652 whole entry): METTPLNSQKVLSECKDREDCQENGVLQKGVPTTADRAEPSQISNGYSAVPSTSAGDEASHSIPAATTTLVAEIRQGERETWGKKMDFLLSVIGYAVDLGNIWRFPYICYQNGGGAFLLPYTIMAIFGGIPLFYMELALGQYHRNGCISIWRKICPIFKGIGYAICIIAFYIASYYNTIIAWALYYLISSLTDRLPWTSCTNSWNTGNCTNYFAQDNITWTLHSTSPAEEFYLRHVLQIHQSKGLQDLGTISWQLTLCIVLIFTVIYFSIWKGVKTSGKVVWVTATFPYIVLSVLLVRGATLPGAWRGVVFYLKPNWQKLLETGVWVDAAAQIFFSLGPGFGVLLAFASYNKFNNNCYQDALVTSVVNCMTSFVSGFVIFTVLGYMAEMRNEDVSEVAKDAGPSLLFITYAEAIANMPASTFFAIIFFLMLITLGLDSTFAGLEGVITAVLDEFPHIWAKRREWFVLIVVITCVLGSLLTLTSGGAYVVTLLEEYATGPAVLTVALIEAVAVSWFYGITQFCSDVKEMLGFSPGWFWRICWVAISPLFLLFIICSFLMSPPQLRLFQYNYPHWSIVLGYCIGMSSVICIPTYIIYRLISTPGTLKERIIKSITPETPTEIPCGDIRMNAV

Turning to `COc1ccsc1C1=CCN([C@H]2CC[C@H](c3c[nH]c4ccc(F)cc43)CC2)CC1` [Example 2, 5-Fluoro-3-{(1,4-trans)-4-[4-(3-methoxy-thiophen-2-yl)-3,6-dihydro-2H-pyridin-1-yl]-cyclohexyl}-1H-indole], the inhibition (commonly the share of the control response that was lost under treatment) at 0.1 µM on serotonin transporter amounted to 18%. The Ki (in general, the dissociation constant of the complex between target and ligand, obtained from inhibition or displacement) at human 5-HT1A receptor is 20.4 nM.
On to `COc1ccsc1C1=CCN([C@H]2CC[C@@H](c3c[nH]c4ccc(F)cc43)CC2)CC1` [Example 1, 5-Fluoro-3-{(1,4-cis)-4-[4-(3-methoxy-thiophen-2-yl)-3,6-dihydro-2H-pyridin-1-yl]-cyclohexyl}-1H-indole], for which 1 µM produced 48% inhibition on human 5-HT1A receptor (0.5 h, @ 1000 nM, [3H]8-OH-DPAT).
